Holding throughout (format): biochemical
The target in one assay is Akt1 (Homo sapiens, UniProt P31749). Nature of the assay: Akt1 kinase inhibition, Z'-LYTE FRET assay. To be noted: 100 μM ATP. In a few lines:
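Z'-LYTE FRET format: kinase phosphorylates fluorophore-labelled peptide with ATP, then protease cleaves only non-phosphorylated peptide. Phosphorylation calculated from donor (460 nm)/acceptor (535 nm) emission ratio after 400 nm excitation; IC50 values derived.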

The next assay addresses T1, PDK-1 (Homo sapiens, UniProt O15530).
T1 sequence (O15530 1-556): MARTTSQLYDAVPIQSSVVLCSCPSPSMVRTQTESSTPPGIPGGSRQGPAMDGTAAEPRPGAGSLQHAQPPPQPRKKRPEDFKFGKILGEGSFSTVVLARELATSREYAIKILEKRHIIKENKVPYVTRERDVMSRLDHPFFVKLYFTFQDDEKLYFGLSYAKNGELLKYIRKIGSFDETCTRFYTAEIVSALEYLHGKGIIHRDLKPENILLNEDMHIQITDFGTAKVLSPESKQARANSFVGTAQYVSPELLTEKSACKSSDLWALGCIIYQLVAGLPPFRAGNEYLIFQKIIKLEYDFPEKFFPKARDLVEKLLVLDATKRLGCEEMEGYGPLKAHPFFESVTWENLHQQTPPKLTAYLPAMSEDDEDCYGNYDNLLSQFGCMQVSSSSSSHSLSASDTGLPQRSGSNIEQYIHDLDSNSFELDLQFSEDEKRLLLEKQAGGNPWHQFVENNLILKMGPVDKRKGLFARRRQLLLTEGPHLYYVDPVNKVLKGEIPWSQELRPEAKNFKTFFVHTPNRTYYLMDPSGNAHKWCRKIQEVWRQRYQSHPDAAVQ
Nature of the assay: PDK-1 kinase inhibition ELISA assay (phosphorylation of His6-tagged SGK1 S422D by PDK-1). To be noted: PDK-1 ELISA, Table 11; read-out: Average IC50. For orientation: In an ELISA, binding on a coated surface is turned into a signal by an enzyme label.

For another assay, the target named is S6K (Homo sapiens, UniProt P23443). The experiment in a line: S6K kinase inhibition, Z'-LYTE FRET assay. To be noted: 100 μM ATP. The source says:
The ability of illustrative Benzo[c][2,7]naphthyridine Derivatives to inhibit PKA, Akt1, S6K in vitro can be determined using a Fluorescence Resonance Energy Transfer (FRET) assay, such as a Z′-LYTE™ Kinase Assay Platform, commercially available from Invitrogen (c.f. Rodems et al., ASSAY Drug Devel. Technol. 1:9-19 (2002) and Zhang et al., J. Biomol. Screen. 4:67-73 (1999)). Z′-Lyte™ assay is an in vitro FRET-based assay that utilizes differential sensitivity of phosphorylated and non-phosphorylated peptides to proteolytic cleavage. The peptide substrate (also available from Invitrogen for each of PKA, Akt1 and S6K) is labeled with two different fluorophores, a fluorescence donor at one end of the peptide and a fluorescence acceptor at the other end of the peptide. In the primary kinase reaction, the kinase phosphorylates the peptide substrate in the presence of ATP. In the secondary reaction, a site-specific protease recognizes and cleaves non-phosphorylated peptides, but not phosphorylated peptides. Cleavage disrupts FRET between the donor and acceptor fluorophores on the peptide, whereas uncleaved phosphorylated peptides maintain FRET. Based on a formula that uses the ratio of donor emission (at 460 nm) to acceptor emission (at […]) after excitation of the donor fluorophore at 400 nm, the extent of phosphorylation of the peptide substrates is calculated. IC50 values of illustrative Benzo[c][2,7]naphthyridine Derivatives, shown in Table 12, are calculated using LSW Data Analysis package add-in for Excel (Microsoft).

A further assay deals with PKA (Homo sapiens, UniProt P17612). The experiment in a line: PKA kinase inhibition, Z'-LYTE FRET assay.

Structures are written as SMILES.

For orientation: IC50 means the concentration that inhibits the measured activity by half.

Sequence of S6K (P23443 whole entry): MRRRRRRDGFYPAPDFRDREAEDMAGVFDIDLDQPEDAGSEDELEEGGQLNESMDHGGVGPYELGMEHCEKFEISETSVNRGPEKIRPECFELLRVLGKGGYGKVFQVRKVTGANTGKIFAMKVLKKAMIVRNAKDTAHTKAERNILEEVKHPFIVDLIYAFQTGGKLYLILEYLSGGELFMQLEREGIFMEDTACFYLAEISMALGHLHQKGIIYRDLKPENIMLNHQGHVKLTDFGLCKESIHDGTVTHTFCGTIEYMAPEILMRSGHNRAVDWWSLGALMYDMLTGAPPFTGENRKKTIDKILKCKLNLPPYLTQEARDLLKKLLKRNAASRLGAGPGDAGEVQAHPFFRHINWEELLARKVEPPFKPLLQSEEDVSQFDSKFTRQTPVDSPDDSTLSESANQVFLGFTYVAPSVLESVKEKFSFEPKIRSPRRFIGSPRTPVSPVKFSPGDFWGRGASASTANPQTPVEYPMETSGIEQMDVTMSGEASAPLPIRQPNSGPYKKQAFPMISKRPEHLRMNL
Sequence of Akt1 (P31749 whole entry, species assumed): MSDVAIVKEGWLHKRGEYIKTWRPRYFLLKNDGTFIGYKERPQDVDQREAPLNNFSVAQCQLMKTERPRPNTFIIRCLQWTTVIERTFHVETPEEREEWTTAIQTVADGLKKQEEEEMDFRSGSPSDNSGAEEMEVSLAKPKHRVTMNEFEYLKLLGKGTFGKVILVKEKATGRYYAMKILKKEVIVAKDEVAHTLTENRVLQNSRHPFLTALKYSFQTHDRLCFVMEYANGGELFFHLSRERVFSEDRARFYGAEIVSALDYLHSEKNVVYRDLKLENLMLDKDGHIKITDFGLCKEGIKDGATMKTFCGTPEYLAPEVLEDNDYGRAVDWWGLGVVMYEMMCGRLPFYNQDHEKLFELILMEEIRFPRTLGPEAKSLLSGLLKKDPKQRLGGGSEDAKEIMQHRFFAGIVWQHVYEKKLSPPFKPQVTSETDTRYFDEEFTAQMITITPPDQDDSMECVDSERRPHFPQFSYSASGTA
Description for PDK-1: In an in vitro assay, His6-tagged SGK1 with S422D mutation (formerly Upstate Biotech, now Millipore) on Thr256 is allowed to be phosphorylated by PDK-1 in the presence of a Benzo[c][2,7]naphthyridine Derivative. After 20 minutes, the reaction is quenched via the addition of urea. The His6-tagged SGK1 is then bound to 96 well Ni-NTA HisSorb plates (Quiagen, Inc., Valencia, Calif.) and phosphorylated SGK1 is quantitatively detected using rabbit derived anti-phospho SGK antibody (Cell Signaling Technology, Danvers, Mass.) as the primary antibody and horseradish peroxidase (HRP)—coupled anti-rabbit antibody (formerly Zymed, now Invitrogen, Carlsbad, Calif.) as the secondary antibody. HRP is then detected using a chemiluminescent substrate (Pierce Chemical Co., Woburn, Mass.).
Excerpt for PKA: Z′-Lyte™ assay is an in vitro FRET-based assay that utilizes differential sensitivity of phosphorylated and non-phosphorylated peptides to proteolytic cleavage. The peptide substrate (also available from Invitrogen for each of PKA, Akt1 and S6K) is labeled with two different fluorophores, a fluorescence donor at one end of the peptide and a fluorescence acceptor at the other end of the peptide. In the primary kinase reaction, the kinase phosphorylates the peptide substrate in the presence of ATP. In the secondary reaction, a site-specific protease recognizes and cleaves non-phosphorylated peptides, but not phosphorylated peptides. Cleavage disrupts FRET between the donor and acceptor fluorophores on the peptide, whereas uncleaved phosphorylated peptides maintain FRET. Based on a formula that uses the ratio of donor emission (at 460 nm) to acceptor emission (at 535 nM) after excitation of the donor fluorophore at 400 nm, the extent of phosphorylation of the peptide substrates is calculated.

Turning to `COc1cc2c(cc1OCCCl)ncc1c(N)nc(-n3ccnc3)cc12` [Ia-21, 8-(2-chloroethoxy)-2-(1H-imidazol-1-yl)-9-methoxybenzo[c][2,7]naphthyridin-4-amine], the IC50 against Akt1 was 0.3 µM; at PDK-1, 0.065 µM; against S6K, 1.56 µM; at PKA (20 μM ATP), greater than 20 µM; against PKA (100 μM ATP) it was greater than 2 µM.

As for `Nc1nc(-n2ccnc2)cc2c1cnc1cc(/C=C/CCN3CCCC3)ccc12` [Ia-24, 2-(1H-imidazol-1-yl)-8-[(1E)-4-pyrrolidin-1-ylbut-1-en-1-yl]benzo[c]-2,7-naphthyridin-4-amine], the IC50 is 0.075 µM on Akt1; 0.097 µM at PDK-1; 1.03 µM on S6K; 0.24 µM against PKA (20 μM ATP); greater than 2 µM on PKA (100 μM ATP).

As to `COc1cc2c(cc1OCCCN1CCCC1)ncc1c(N)nc(-c3cccnc3)cc12` [Ia-31, 9-Methoxy-2-pyridin-3-yl-8-(3-pyrrolidin-1-ylpropoxy)benzo[c]-2,7-naphthyridin-4-amine], the 50% inhibitory concentration (IC50) is 0.17 µM on Akt1; 0.12 µM on PDK-1; 0.422 µM at S6K; greater than 20 µM on PKA (20 μM ATP); greater than 2 µM against PKA (100 μM ATP).

Regarding `COc1cc2c(cc1O)ncc1c(N)nc(-n3ccnc3)cc12` [Ia-33, 4-Amino-2-(1H-imidazol-1-yl)-9-methoxybenzo[c]-2,7-naphthyridin-8-ol], the IC50 is 2 µM on Akt1; 0.09 µM at PDK-1; greater than 2 µM on S6K; 2.5 µM on PKA (20 μM ATP); greater than 2 µM on PKA (100 μM ATP).

With `COc1cc2ncc3c(N)nc(-c4cncc(OC[C@H](N)Cc5ccc(F)cc5)c4)cc3c2cc1OC` [Ib-47, 2-(5-{[(2R)-2-amino-3-(4-fluorophenyl)propyl]oxy}pyridin-3-yl)-8,9-dimethoxybenzo[c]-2,7-naphthyridin-4-amine], the IC50 at Akt1 came to 0.012 µM; at PDK-1 it was 0.015 µM; against S6K it was 0.093 µM; on PKA (20 μM ATP), 0.025 µM; on PKA (100 μM ATP), 0.251 µM.

Take `COc1cc2ncc3c(N)nc(-c4cncc(OC[C@H](N)CN5Cc6ccccc6C5)c4)cc3c2cc1OC` [Ib-48, 2-(5-{[(2R)-2-amino-3-(1,3-dihydro-2H-isoindol-2-yl)propyl]oxy}pyridin-3-yl)-8,9-dimethoxybenzo[c]-2,7-naphthyridin-4-amine]: the concentration for half-maximal inhibition (IC50) was 0.4 µM on Akt1; 0.034 µM on PDK-1; 0.405 µM on S6K; 2.7 µM against PKA (20 μM ATP); greater than 2 µM against PKA (100 μM ATP).

As for `COc1cc2ncc3c(N)nc(-c4cncc(OC[C@@H](N)CN5CCc6ccccc6C5)c4)cc3c2cc1OC` [Ib-50, 2-(5-{[(2S)-2-amino-3-(3,4-dihydroisoquinolin-2(1H)-yl)propyl]oxy}pyridin-3-yl)-8,9-dimethoxybenzo[c]-2,7-naphthyridin-4-amine], the IC50 was 0.16 µM against Akt1; 0.061 µM at PDK-1; 0.22 µM against S6K; 2.1 µM at PKA (20 μM ATP); greater than 2 µM on PKA (100 μM ATP).

Take `COc1cc2ncc3c(N)nc(-c4cncc(OC[C@@H](N)COCc5ccccc5)c4)cc3c2cc1OC` [Ib-51, 2-(5-{[(2S)-2-amino-3-(benzyloxy)propyl]oxy}pyridin-3-yl)-8,9-dimethoxybenzo[c]-2,7-naphthyridin-4-amine]: the IC50 against Akt1 was less than 0.16 µM; at PDK-1, 0.005 µM; against S6K, 0.06 µM; on PKA (20 μM ATP), 0.34 µM; against PKA (100 μM ATP), 0.712 µM.

`COc1cc2ncc3c(N)nc(-c4cncc(OC[C@@H](N)Cc5ccccc5Cl)c4)cc3c2cc1OC` [Ib-52, 2-(5-{[(2S)-2-amino-3-(2-chlorophenyl)propyl]oxy}pyridin-3-yl)-8,9-dimethoxybenzo[c]-2,7-naphthyridin-4-amine]: the IC50 at Akt1 is 0.0064 µM; at PDK-1, 0.008 µM; against S6K, 0.106 µM; at PKA (20 μM ATP), 0.045 µM; on PKA (100 μM ATP), 0.793 µM.

For the origin of these results see patent US20080293712A1, “Benzo[C][2,7]Naphtyridine Derivatives, Methods of Making Thereof and Methods of Use Thereof” (WYETH, priority 2007, published 2008).
